Drawing on patent US10556907B2 (AbbVie Inc., priority 2015, dated 2020), this text covers EC50 for ten molecules.

What all share (test): Method 1: intracellular Ca2+ release (FLIPR, Calcium 5) in recombinant CHO-K1 cells
What all share (format): cell-based

Assay [1] deals with T1, human S1PR4 receptor (Homo sapiens, UniProt O95977).
T1 construct: host or cells: CHO-K1
T1 sequence (O95977 1-384): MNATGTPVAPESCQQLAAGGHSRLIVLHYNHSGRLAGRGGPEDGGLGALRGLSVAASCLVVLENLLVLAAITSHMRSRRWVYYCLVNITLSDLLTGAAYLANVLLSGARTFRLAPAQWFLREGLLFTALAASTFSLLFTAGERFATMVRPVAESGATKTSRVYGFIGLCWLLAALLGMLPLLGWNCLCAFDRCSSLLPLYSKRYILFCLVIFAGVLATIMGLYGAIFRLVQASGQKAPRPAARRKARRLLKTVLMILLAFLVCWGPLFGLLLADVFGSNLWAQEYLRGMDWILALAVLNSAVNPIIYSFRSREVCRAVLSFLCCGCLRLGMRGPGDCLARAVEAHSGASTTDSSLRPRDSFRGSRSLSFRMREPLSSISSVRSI
The following applies: (1): determined with method 1; read-out: S1P4 EC50. The gist of the method: (§1)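 Agonist EC50 values come from nonlinear fits of FLIPR Ca2+ fluorescence, normalized to the phospho-fingolimod reference curve. Recombinant CHO-K1 (receptor plus Gq/i5, aequorin) dye-loaded 1 h at 37° C in pH 7.4 Hepes/probenecid/BSA buffer. Antagonist mode: 10 min preincubation before phospho-fingolimod at EC80.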

Assay [2] has as its target T2, human S1PR1 receptor (Homo sapiens, UniProt P21453).
T2 construct: host or cells: CHO-K1
The following applies: (1): determined with method 1; read-out: S1P1 EC50. The gist of the method:
as §1

The target in assay [3] is T3, human S1PR5 receptor (Homo sapiens, UniProt Q9H228).
T3 construct: host or cells: CHO-K1
The following applies: agonist potency, determined with method 1 (symbols A-D); read-out: S1P5 EC50 range. The procedure, abridged: as §1

Counter-ions that a name gives are not always drawn. Bounds are passed on as bounds.

T2 sequence (P21453 whole entry): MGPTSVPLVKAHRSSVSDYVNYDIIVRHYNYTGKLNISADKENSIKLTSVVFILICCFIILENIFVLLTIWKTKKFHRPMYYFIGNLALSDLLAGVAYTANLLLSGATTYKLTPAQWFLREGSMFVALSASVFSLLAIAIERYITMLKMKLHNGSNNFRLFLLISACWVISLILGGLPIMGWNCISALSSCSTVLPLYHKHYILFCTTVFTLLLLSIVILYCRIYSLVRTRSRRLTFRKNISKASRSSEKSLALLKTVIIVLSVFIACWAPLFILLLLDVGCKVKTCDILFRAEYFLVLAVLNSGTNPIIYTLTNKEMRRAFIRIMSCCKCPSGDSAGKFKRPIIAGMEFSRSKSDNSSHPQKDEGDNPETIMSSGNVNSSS
T3 sequence (Q9H228 whole entry): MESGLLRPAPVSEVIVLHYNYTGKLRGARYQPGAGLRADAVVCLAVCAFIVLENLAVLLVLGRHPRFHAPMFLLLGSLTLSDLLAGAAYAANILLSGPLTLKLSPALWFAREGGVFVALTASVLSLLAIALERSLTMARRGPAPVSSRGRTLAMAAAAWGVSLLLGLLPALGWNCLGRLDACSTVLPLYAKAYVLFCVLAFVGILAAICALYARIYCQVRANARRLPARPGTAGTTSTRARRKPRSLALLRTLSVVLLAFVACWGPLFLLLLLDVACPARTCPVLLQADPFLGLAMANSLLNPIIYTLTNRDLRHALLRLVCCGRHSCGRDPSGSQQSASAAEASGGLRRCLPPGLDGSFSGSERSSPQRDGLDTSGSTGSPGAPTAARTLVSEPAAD

As for `O=C(O)C1CC(N2CCc3nc(C#Cc4ccccc4)c(F)cc3C2)C1` (stereo not drawn) [Compound 184, 3-(3-fluoro-2-(phenylethynyl)-7,8-dihydro-1,6-naphthyridin-6(5H)-yl)cyclobutanecarboxylic acid], the EC50 in assay [1] is over 1000 nM; in assay [2], over 1000 nM; in assay [3] it was 1000 to 10000 nM.
In the case of `O=C(O)CC1CC(N2CCc3nc(-c4ccc(OCc5ccc(Cl)c(Cl)c5)cc4)ncc3C2)C1` (stereo not drawn) [Compound 4, 2-(3-(2-(4-((3,4-dichlorobenzyl)oxy)phenyl)-7,8-dihydropyrido[4,3-d]pyrimidin-6(5H)-yl)cyclobutyl)acetic acid], the 50% effective concentration (EC50) is over 1000 nM in assay [1], over 1000 nM in assay [2] and 100 to 1000 nM in assay [3].
For the molecule `C[C@H](CCO)CN1CCc2nc(-c3ccc(OCc4ccc(Cl)cc4)cc3)ncc2C1` [Compound 315, (R)-4-(2-(4-((4-chlorobenzyl)oxy)phenyl)-7,8-dihydropyrido[4,3-d]pyrimidin-6(5H)-yl)-3-methylbutan-1-ol], the concentration giving a half-maximal response (EC50) in assay [1] was over 1000 nM; in assay [2], over 1000 nM; in assay [3], 100 to 1000 nM.
Take `Cc1cc(-c2ncc3c(n2)CCN(CC(C)CC(=O)O)C3)ccc1OCc1ccc(C(C)C)cc1` (stereo not drawn) [Compound 310, 4-[2-[4-[(4-isopropylphenyl)methoxy]-3-methyl-phenyl]-7,8-dihydro-5H-pyrido[4,3-d]pyrimidin-6-yl]-3-methyl-butanoic acid 2,2,2-trifluoroacetic acid salt]: the half-maximal effective concentration (EC50) in assay [1] was over 1000 nM; in assay [2], over 1000 nM; in assay [3], 100 to 1000 nM.
As to `O=C(O)C1CC(N2CCc3nc(-c4cccc(OCc5ccccc5)c4)cnc3C2)C1` (stereo not drawn) [Compound 208, 3-(2-(3-(benzyloxy)phenyl)-7,8-dihydropyrido[3,4-b]pyrazin-6(5H)-yl)cyclobutanecarboxylic acid], the EC50 in assay [1] is over 1000 nM; in assay [2], over 1000 nM; in assay [3], 1000 to 10000 nM.
Consider `Cc1ccc(C(F)(F)F)cc1COc1ccc(-c2ncc3c(n2)CCN(CC(C)CC(=O)O)C3)c(F)c1` (stereo not drawn) [Compound 272, 4-[2-[2-fluoro-4-[[2-methyl-5-(trifluoromethyl)phenyl]methoxy]phenyl]-7,8-dihydro-5H-pyrido[4,3-d]pyrimidin-6-yl]-3-methyl-butanoic acid 2,2,2-trifluoroacetic acid salt], for which the half-maximal effective concentration (EC50) in assay [1] was over 1000 nM; in assay [2] it was over 1000 nM; in assay [3], 10 to 100 nM.
For the molecule `CC(C)(CC(=O)O)CN1CCc2nc(-c3ccc(OCc4cccc(Cl)c4)cc3)ncc2C1` [Compound 216, 4-(2-(4-((3-chlorobenzyl)oxy)phenyl)-7,8-dihydropyrido[4,3-d]pyrimidin-6(5H)-yl)-3,3-dimethylbutanoic acid], the 50% effective concentration (EC50) in assay [1] is over 1000 nM; in assay [2], over 1000 nM; in assay [3] it was 1000 to 10000 nM.
Turning to `O=C(O)CN1CCc2nc(-c3ccc(OCc4ccccc4)cc3)ncc2C1` [Compound 25, 2-(2-(4-(benzyloxy)phenyl)-7,8-dihydropyrido[4,3-d]pyrimidin-6(5H)-yl)acetic acid], the results for the concentration giving a half-maximal response (EC50) in assay [1], in assay [2] and in assay [3] were over 1000 nM, over 1000 nM and 100 to 1000 nM, respectively.
For `Cc1cc(-c2ncc3c(n2)CCN(C[C@@H](C)CC(=O)O)C3)ccc1OCc1ccccc1` [Compound 261, (S)-4-(2-(4-(benzyloxy)-3-methylphenyl)-7,8-dihydropyrido[4,3-d]pyrimidin-6(5H)-yl)-3-methylbutanoic acid], the figures for the concentration for a half-maximal effect (EC50) in assay [1], in assay [2] and in assay [3] were over 1000 nM, over 1000 nM and 10 to 100 nM, respectively.
Consider `CC(CC(=O)O)CN1CCc2nc(-c3ccc(/C=C/c4ccc(Cl)cc4F)cc3)ncc2C1` (stereo not drawn) [Compound 282], for which the EC50 in assay [1] is over 1000 nM; in assay [2], over 1000 nM; in assay [3], 10 to 100 nM.
